PubChem BioAssay (NCI)
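Results reflect a 48-hour exposure of cells in 96-well plates to compound at five concentrations. At the TGI there is no net growth.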 *1 amine or outer side, *2 acyl side, *3 side chain or, on linkers, in order; H or OH if unused. Where a SMILES comes first, the peptide text is derived from it. Bridges are numbered along the chain shown (N, C = ends). [ ]: non-standard residue; d: D form. X59 = COc1c(N[*:1])cccc1C(=O)O[C@H](C(=O)[C@H](C)C(=O)[*:2])C(C)C; X58 = CC(C)C[C@H](C(=O)[*:2])C(C)C(=O)C1CCCN1[*:1]; NMeY = CN[C@@H](Cc1ccc(O)cc1)C(=O)O; Lac = C[C@H](O)C(=O)O

Experiments:
Test in all cases: DTP human tumour cell line panel, 48 h
[1] = system: DU-145 prostate
[2] = system: HS 578T breast
[3] = system: EKVX NSCLC
[4] = system: OVCAR-3 ovarian
[5] = system: HCT-116 colon
[6] = system: NCI-H522 lung
[7] = system: SR leukemia
[8] = system: OVCAR-5 ovarian
[9] = system: KM12 colon
[10] = system: MCF7 breast
[11] = system: HCC-2998 colon
[12] = system: U251 CNS

SMILES | TGI [1] | TGI [2] | TGI [3] | TGI [4] | TGI [5] | TGI [6] | TGI [7] | TGI [8] | TGI [9] | TGI [10] | TGI [11] | TGI [12]
Cn1c(-c2cccs2)cc(-c2ccsc2)c1-c1cccs1 | > 100 µM | > 100 µM | > 100 µM | > 100 µM | > 100 µM | > 100 µM | > 100 µM | > 100 µM | > 100 µM | > 100 µM | > 100 µM | > 100 µM
CN(C)CCN=C1Nc2ccccc2C(=O)N2CSCC12 (centres undefined) | > 100 µM | > 100 µM | > 100 µM | > 100 µM | > 100 µM | > 100 µM | > 100 µM | > 100 µM | > 100 µM | > 100 µM | > 100 µM | > 100 µM
COc1ccc(C[C@H]2C(=O)O[C@H](C)[C@H](NC(=O)[C@@H](CC(C)C)C(C)C(=O)C3CCCN3C(=O)[C@H](C)O)C(=O)Nc3cccc(c3OC)C(=O)O[C@@H](C(C)C)C(=O)[C@H](C)C(=O)N[C@@H](CC(C)C)C(=O)N3CCC[C@H]3C(=O)N2C)cc1 (some centres undefined) (H-[Lac][X58]T[X59]LP[NMeY](Me); ester 3-C) | > 12.5 µM | > 12.5 µM | > 12.5 µM | > 12.5 µM | > 12.5 µM | > 12.5 µM | > 12.5 µM | > 12.5 µM | > 12.5 µM | > 12.5 µM | > 12.5 µM | > 12.5 µM
CCOC(=O)CON=c1c2ccccc2ccc2ccccc12 | > 100 µM | > 100 µM | > 100 µM | > 100 µM | > 100 µM | – | > 100 µM | > 100 µM | > 100 µM | > 100 µM | > 100 µM | > 100 µM
Cc1ncc([N+](=O)[O-])n1CCNC(=O)Cn1ccnc1[N+](=O)[O-] | > 100 µM | > 100 µM | – | > 100 µM | > 100 µM | > 100 µM | > 100 µM | > 100 µM | > 100 µM | > 100 µM | > 100 µM | > 100 µM
N#Cc1nc(-c2ccc(-c3nc(C#N)c(N)o3)cc2)oc1N | > 10 µM | > 10 µM | > 10 µM | – | > 10 µM | > 10 µM | > 10 µM | – | > 10 µM | > 10 µM | > 10 µM | –
COc1ccc2oc(=O)c(-c3csc(-c4ccccc4)n3)cc2c1 | > 100 µM | 94.5 µM | > 100 µM | – | > 100 µM | – | > 100 µM | > 100 µM | > 100 µM | > 100 µM | > 100 µM | 52.4 µM
C=CC[C@@]12CCC(=O)C=C1CCCC2=O | > 100 µM | > 100 µM | > 100 µM | > 100 µM | > 100 µM | > 100 µM | > 100 µM | > 100 µM | – | > 100 µM | > 100 µM | > 100 µM
COc1cc(/C=C2\CC(C)C/C(=C\c3ccc(O)c(OC)c3)C2=O)ccc1O (centres undefined) | 12.7 µM | 10.4 µM | 28.1 µM | 6.47 µM | 3.4 µM | 3.86 µM | > 25.5 µM | 40.8 µM | 3.86 µM | 19.3 µM | 12.5 µM | 5.59 µM
O=[N+]([O-])c1cc2ccc1OCc1cccc(n1)COc1ccc(cc1[N+](=O)[O-])C=NCCCCCCCCN=C2 | > 100 µM | > 100 µM | > 100 µM | > 100 µM | > 100 µM | > 100 µM | > 100 µM | > 100 µM | > 100 µM | > 100 µM | > 100 µM | > 100 µM
CC(C)(C)OC(=O)NC(Cc1ccc(OCc2ccccc2)cn1)C(=O)O (centres undefined) | > 100 µM | > 100 µM | > 100 µM | > 100 µM | > 100 µM | > 100 µM | > 100 µM | > 100 µM | > 100 µM | > 100 µM | > 100 µM | > 100 µM
COc1ccc(OC2OC(CO)C(O)C(O)C2O)cc1 (centres undefined) | > 100 µM | > 100 µM | > 100 µM | > 100 µM | > 100 µM | > 100 µM | > 100 µM | > 100 µM | > 100 µM | > 100 µM | > 100 µM | > 100 µM
[O-]/[N+](=N/c1ncc(-c2ccccc2)cn1)c1ncc(-c2ccccc2)cn1 | > 100 µM | > 100 µM | > 100 µM | > 100 µM | > 100 µM | 32.3 µM | > 100 µM | > 100 µM | > 100 µM | > 100 µM | > 100 µM | > 100 µM
O=C1O/C(=C(/Cl)c2c3ccccc3cc3ccccc23)c2ccccc21 | > 100 µM | 59.8 µM | > 100 µM | 60.9 µM | 9.58 µM | > 100 µM | 35.6 µM | > 100 µM | 17.3 µM | > 100 µM | > 100 µM | > 100 µM
COC(=O)/C=C/c1ccc2c(c1)[C@H](C(=O)OC)[C@@H](c1ccc(O)cc1)O2 | > 100 µM | 96.4 µM | > 100 µM | 28.2 µM | > 100 µM | 74.2 µM | 45.8 µM | > 100 µM | 88.1 µM | 48.6 µM | 59.4 µM | > 100 µM
CC1(C)N([O-])[N+](=O)C1(Br)c1ccccc1 (centres undefined) | > 100 µM | > 100 µM | > 100 µM | > 100 µM | > 100 µM | – | > 100 µM | > 100 µM | > 100 µM | > 100 µM | > 100 µM | > 100 µM
CC(C)N(C(=O)C12C3(C(=O)C(C)(C)C)C4C5(C#N)C3C1(C(=O)C(C)(C)C)C5C42C(=O)C(C)(C)C)C(C)C (centres undefined) | > 100 µM | > 100 µM | > 100 µM | > 100 µM | > 100 µM | > 100 µM | > 100 µM | > 100 µM | > 100 µM | > 100 µM | > 100 µM | > 100 µM
CC(=O)c1sc2n(C)c(=O)c3ccccc3[n+]2c1C | > 100 µM | > 100 µM | > 100 µM | > 100 µM | > 100 µM | > 100 µM | > 100 µM | > 100 µM | > 100 µM | > 100 µM | > 100 µM | > 100 µM
COC(=O)/C=C1/OC(c2ccc(C)cc2C)=CC1=O | 30 µM | 81.7 µM | > 100 µM | 60.1 µM | 24.1 µM | 43.3 µM | > 100 µM | 31.7 µM | 31.8 µM | 28.3 µM | 30.5 µM | 31.1 µM
